# Measurements from ChEMBL document CHEMBL1133991, “Bioisosteres of 9-carboxymethyl-4-oxo-imidazo[1,2-a]indeno-[1,2-e]pyrazin-2-carboxylic acid derivatives. Progress towards selective, potent in vivo AMPA antagonists with longer durations of action” (Bioorg Med Chem Lett, 2001).
# The source made the active and inactive calls. The calls are words filed in the database; no cut-off is given here.
# Assays:
# Glutamate NMDA receptor = test: In vitro binding affinity towards NMDA glutamate receptor using [3H]5,7-dichlorokynurenate as ligand on rat cortical membrane preparations
# [1] = molecular target: T1, Glutamate receptor ionotropic, AMPA (Rattus norvegicus, UniProt P19490+P19491+P19492+P19493)
# Description: Affinity towards Ionotropic glutamate receptor AMPA using [3H]AMPA as ligand on rat cortical membrane preparations
# Mus musculus [2] = species: Mus musculus; test: (§1) Dose which protected 50 % of the mice from a tonic convulsion.; type: functional
# Mus musculus [3] = species: Mus musculus; test: as §1; type: functional; remark: listed apart in the source
# Mus musculus [4] = test: Dose which protected 50 % of the mice from a tonic convulsion, pretreatment was before 3 hr by i.v. administration in MES test at 40 mg/kg (Inactive); type: functional, organism-based; set-up: dose 40 mg/kg
# Mus musculus [5] = test: Dose which protected 50 % of the mice from a tonic convulsion, pretreatment was before 3 hr by i.v. administration in MES test.; type: functional; details: iv
# [6] = molecular target: T1, Glutamate receptor ionotropic, AMPA; remark: listed apart in the source
# Description: Compound was evaluated for potent antagonist intrinsic activity against Ionotropic glutamate receptor AMPA
IC50 (Glutamate NMDA receptor),IC50 [1],Structure (SMILES),ED50 (Mus musculus [2]),ED50 (Mus musculus [3]),ED50 (Mus musculus [4]),ED50 (Mus musculus [5]),IC50 [6]
537 nM,15 nM,O=C(O)c1cn2c3c(nc(O)c2n1)-c1cccc(Cc2nn[nH]n2)c1C3,2 mg/kg,2.3 mg/kg,inactive,,
1200 nM,235 nM,CS(=O)(=O)NC(=O)Cc1cccc2c1Cc1c-2nc(O)c2nc(C(=O)O)cn12,,,,,
6100 nM,100 nM,O=C(O)Cc1cccc2c1Cc1c-2nc(O)c2nc(-c3ccccc3C(=O)O)cn12,,,,,
,,O=C(O)Cc1cn2c3c(nc(O)c2n1)-c1cccc(CC(=O)O)c1C3,0.5 mg/kg,,,28 mg/kg,
> 10000 nM,150 nM,O=C(O)Cc1cccc2c1Cc1c-2nc(O)c2nc(P(=O)(O)O)cn12,2.9 mg/kg,3.5 mg/kg,,3.5 mg/kg,
,,O=c1[nH]c2cc(-n3ccnc3)c([N+](=O)[O-])cc2[nH]c1=O [YM-90K],,,,> 40 mg/kg,
1600 nM,31 nM,O=C(O)CCc1cn2c3c(nc(O)c2n1)-c1cccc(CC(=O)O)c1C3,,1.9 mg/kg,,,
,,O=C(O)Cc1cccc2c1Cc1c-2nc(O)c2nc(C(=O)O)cn12,,,,25.6 mg/kg,
,,O=C(O)[C@@H]1C[C@H]2C[C@@H](CCc3nn[nH]n3)CC[C@H]2CN1 [TEZAMPANEL ANHYDROUS],3.4 mg/kg,,,,
> 10000 nM,30 nM,O=C(O)/C=C/c1cn2c3c(nc(O)c2n1)-c1cccc(CC(=O)O)c1C3,3.8 mg/kg,2.2 mg/kg,,25.6 mg/kg,
328 nM,189 nM,CNC(=O)Cc1cccc2c1Cc1c-2nc(O)c2nc(C(=O)O)cn12,5 mg/kg,10 mg/kg,,> 20 mg/kg,
> 10000 nM,586 nM,O=C(O)c1cn2c3c(nc(O)c2n1)-c1cccc(CP(=O)(O)O)c1C3,,5.6 mg/kg,,,
> 10000 nM,147 nM,O=C(O)Cc1cccc2c1Cc1c-2nc(O)c2nc(CP(=O)(O)O)cn12,2.5 mg/kg,4.7 mg/kg,,22.4 mg/kg,
7200 nM,40 nM,O=C(O)Cc1cccc2c1Cc1c-2nc(O)c2nc(-c3cccc(C(=O)O)c3)cn12,,8.6 mg/kg,,,

Structure (SMILES),IC50 (Glutamate NMDA receptor),IC50 [1],ED50 (Mus musculus [2]),ED50 (Mus musculus [3]),ED50 (Mus musculus [4]),ED50 (Mus musculus [5]),IC50 [6]
O=P(O)(O)c1cn2c3c(nc(O)c2n1)-c1cccc(Cc2nn[nH]n2)c1C3,2360 nM,13 nM,0.8 mg/kg,1 mg/kg,,3.5 mg/kg,6 nM
O=C(O)Cc1cccc2c1Cc1c-2nc(O)c2nc(-c3ccc(C(=O)O)cc3)cn12,5800 nM,12 nM,5 mg/kg,5 mg/kg,,15 mg/kg,
O=C(Cc1cccc2c1Cc1c-2nc(O)c2nc(C(=O)O)cn12)NS(=O)(=O)c1ccccc1,2000 nM,139 nM,,,,,
